Consider two molecules from patent US11286247B2, “Acryloyl-containing nuclear transport regulators and uses thereof” (WIGEN BIOMEDICINE TECHNOLOGY (SHANGHAI) CO., LTD., priority 2019, dated 2022).

By solubility is commonly meant the dissolved amount per volume that the medium holds. One may read the T/C as the ratio of treated to control. One may read the IC50 as the concentration that gives 50% inhibition. The term AUC(0-t) denotes the area under the concentration-time curve up to a stated or last time point. The term Cmax denotes the maximum level reached in the sampled fluid or tissue. A word on the MRT: it is the average time that molecules of a dose stay in the body. In general, Tmax refers to the time from dosing to the highest level. By half-life is commonly meant how long it takes for the measured level to halve. Read a low half-life as fast loss.

Converted amounts (≈) assume the structure as drawn. “Also recorded” adds a separate entry of the source. Read-outs that look alike come from different tables or passages of the source.

The nature of one data set: Aqueous solubility assay. It is filed as physicochemical. The note with it: thermodynamic from solid, HPLC. As to the method: 10-30 mg of compounds were dissolved in water and an HCl solution at pH1.2 respectively, and then were continuously shook for three days, followed by centrifugation at 10000 rpm/minute for five minutes. A 2 mL aliquot of supernatant was removed and diluted to 50 mL to prepare a sample solution. A control solution was prepared by dissolving 2.5 mg compounds in methanol, which was subsequently diluted with water to a final volume of 50 mL. 20 μL of control and sample solutions were injected into HPLC. The area under the curve (A) of the sample solution was compared with that of the control solution and used for determination of the concentration. Solubility was calculated by the formula below. Solubility (mg/mL)=c(control)*25*A(sample)/A(control) • C (control): concentration of the control solution • A (sample): area under the curve of the sample solution • A (control): area under the curve of the control solution

Another data set has as its system BxPC-3 xenografts. Nature of the data set: Anti-tumor growth efficacy in pancreatic tumor BxPC3 nude mice xenograft model. The class given is in vivo. The note with it: for Tumor volume D1 / average body weight D1: D1, first day of drug treatment; for Tumor volume D1 / average body weight D1 / TGI (tumor growth inhibition) / Tumor volume D21 / average body weight D21 / RTV (relative tumor volume, Vt/V0) / T/C: oral: KPT-330 and 38 10 mg/kg tiw, 79 2.5 mg/kg tiw, 62 10 mg/kg qd; for TGI (tumor growth inhibition) / Tumor volume D21 / average body weight D21 / RTV (relative tumor volume, Vt/V0): D21; for RTV (relative tumor volume, Vt/V0): *P < 0.05 vs. vehicle group; for anti-tumor growth activity in BxPC-3 xenograft model (in words): Example 79 2.5 mg/kg, Example 38 10 mg/kg, compared to 10 mg/kg KPT-330; for T/C: TRTV/CRTV X 100. How it is done: BxPC-3 cells were cultured in 1640 medium containing 10% FBS at 37° C. and 5% CO2, 8×10^6 BxPc-3 cells were implanted subcutaneously into the left armpit of 40 nude mice. […] Compound 62 was administered orally everyday (qd) at 10 mg/kg, whereas KPT330 and compound 38 were given three times a week (tiw, Monday, Wednesday and Friday) at 10 mg/kg by oral gavage, and compound 79 were given three times a week (tiw, Monday, Wednesday and Friday) at 2.5 mg/kg by oral gavage. Tumor volume and body weight were measured every other day. Mice were sacrificed on day 21, and tumor and terminal body weight were recorded. The relative tumor volume, percent treatment/control values and tumor growth inhibition were calculated and statistics was performed.

For data set [1], the system named is BxPC-3 cells (pancreatic cancer). Nature of the data set: Cancer cell proliferation assay, BxPC-3. It is filed as cell-based. Conditions: Homo sapiens, BXPC-3, 72 h; three days incubation, absorbance 570 nm; read-out: IC50 (μM) BxPC-3. How it is done:
(§1) BxPC-3 cells (pancreatic cancer) and MDA-MB-231 cells (breast cancer cells) were harvested from exponential phase cultures and seeded in 96-well plates at a cell density of 2×10^4 per well. After overnight attachment, compounds including positive controls were applied to cells at five concentrations and incubated for three days. During the last four hours of incubation, 20 μL of 5 mg/mL […] was added followed by the further addition of 100 μL DMSO. The plates were subsequently shook for 10 minutes to dissolve insoluble purple formazan. Absorbance (A) at a wavelength of 570 nm was quantified. Percentage of inhibition was used for the calculation of IC50 based on the bliss method.

The next data set deals with T1, CRM1 (Homo sapiens, UniProt O14980).
T1 construct: The nuclear localization of Rev protein depends on CRM1; endogenous in cells; host or cells: U2OS cells stably or transiently expressing Rev-GFP (reporter cargo)
T1 sequence (O14980 whole entry): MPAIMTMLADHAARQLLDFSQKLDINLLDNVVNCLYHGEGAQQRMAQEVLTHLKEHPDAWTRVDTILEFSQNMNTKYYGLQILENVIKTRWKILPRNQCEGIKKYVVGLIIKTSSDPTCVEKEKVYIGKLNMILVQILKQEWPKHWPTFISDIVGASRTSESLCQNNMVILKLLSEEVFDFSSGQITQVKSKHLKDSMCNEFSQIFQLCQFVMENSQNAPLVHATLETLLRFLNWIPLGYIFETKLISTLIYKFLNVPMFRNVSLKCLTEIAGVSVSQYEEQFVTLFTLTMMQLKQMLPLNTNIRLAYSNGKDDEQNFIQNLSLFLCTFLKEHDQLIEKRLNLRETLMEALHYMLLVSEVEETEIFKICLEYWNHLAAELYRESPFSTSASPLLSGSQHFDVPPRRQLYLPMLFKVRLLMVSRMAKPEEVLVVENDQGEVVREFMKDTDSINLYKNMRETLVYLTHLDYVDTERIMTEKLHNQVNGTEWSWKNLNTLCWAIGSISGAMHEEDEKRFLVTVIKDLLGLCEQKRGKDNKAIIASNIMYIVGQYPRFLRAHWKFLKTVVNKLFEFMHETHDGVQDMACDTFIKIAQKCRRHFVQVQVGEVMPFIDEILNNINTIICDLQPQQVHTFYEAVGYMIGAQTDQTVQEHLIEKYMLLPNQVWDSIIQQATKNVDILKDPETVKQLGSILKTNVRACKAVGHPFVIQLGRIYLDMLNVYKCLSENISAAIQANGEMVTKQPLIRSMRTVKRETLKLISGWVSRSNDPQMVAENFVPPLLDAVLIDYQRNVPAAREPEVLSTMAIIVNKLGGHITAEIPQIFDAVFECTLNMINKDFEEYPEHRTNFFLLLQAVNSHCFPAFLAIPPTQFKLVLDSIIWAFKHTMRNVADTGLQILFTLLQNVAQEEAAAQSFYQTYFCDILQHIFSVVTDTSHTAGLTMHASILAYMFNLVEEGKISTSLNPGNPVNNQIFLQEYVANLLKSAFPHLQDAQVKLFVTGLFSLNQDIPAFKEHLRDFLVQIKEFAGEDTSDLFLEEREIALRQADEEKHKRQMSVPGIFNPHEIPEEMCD
The experiment in a line: Rev-GFP nuclear export assay. The note with it: U2OS cells expressing Rev-GFP, 1 hour incubation, nuclear retention of Rev-GFP. The class given is cell-based. As to the method:
The Rev protein from HIV contains nuclear export sequence (NES) at its C terminus and nuclear localization sequence (NLS) at its N-terminus. The nuclear localization of Rev protein depends on CRM1. U2OS cells expressing Rev protein fused with GFP (Rev-GFP) were plated in black 384 plates with clear bottom one day prior to treatment. Compounds were serially diluted 2-fold from 40 μM with DMEM in 384 plates, and then incubated with U2OS cells for an hour. Cells were fixed with 3.7% formaldehyde afterwards and nuclei were stained with Hoechst33258. The nuclear retention of Rev-GFP was examined, and IC50 was calculated.

In data set [2] the test system is MDA-MB-231 cells (breast cancer cells). Nature of the data set: Cancer cell proliferation assay, MDA-MB-231. The class given is cell-based. Conditions: Homo sapiens, MDA-MB-231, 72 h; three days incubation, absorbance 570 nm; read-out: IC50 (μM) MDA-MB-231. How it is done:
as §1

Data set [3] can be described thus: In vivo pharmacokinetic analysis. Conditions: ICR, mouse; mice, 5 mg/kg, oral gavage in 0.5% CMC, plasma. As to the method:
A group of 9 ICR mice received 5 mg/kg of compound in 0.5% CMC by oral gavage. Blood was taken before treatment and at 5 min, 30 min, 1, 2, 4, 8, 12 and 24 h after treatment. 80 μL of whole blood was sampled (n=3 at each time point) via retro-orbital bleeds or cardiac puncture. The blood sample was collected into EDTA tubes and plasma were obtained by centrifugation at 1500-1600 rpm for 10 min at 4° C. After centrifugation, plasma sample was transferred to a new tube and stored at −60 to −90° C. for future analysis. Plasma concentration of (compounds was quantified by a method based on liquid chromatography coupled to tandem mass-spectrometric detections (LC/MS/MS). Noncompartmental pharmacokinetics parameters were calculated.

The mark [4] stands for this setting: simulated gastric fluid, HCl solution of pH 1.2, shaken three days, read-out: Solubility, HCl solution of pH 1.2.
Where [5] appears, read: water, shaken three days, read-out: Solubility, Water.

As to `COC1=CC(=O)N(NC(=O)/C=C\n2cnc(-c3cc(C(F)(F)F)cc(C(F)(F)F)c3)n2)C1` [Compound 79, (Z)-3-(3-(3,5-bis(trifluoromethyl)phenyl)-1H-1,2,4-triazol-1-yl)-N-(4-methoxy-2-oxo-2,5-dihydro-1H-pyrrol-1-yl)acrylamide], in “Aqueous solubility assay” (setting [4]), the solubility at 3 days is 8.54 µg/mL (≈ 18.5 µM). Also, in “Aqueous solubility assay” (setting [5]), the solubility at 3 days came to 7.89 µg/mL (≈ 17.1 µM). In the data set with BxPC-3 xenografts, the “Tumor volume D1” value is on record as 66.87 ± 9.13 mm^3, the “average body weight D1” value amounted to 20.15 g, the “TGI (tumor growth inhibition)” value was 84.37% and the “Tumor volume D21” value is 126.90 ± 17.73 mm^3. In the data set on BxPC-3 xenografts, the “average body weight D21” value was determined as 21.30 g; the “RTV (relative tumor volume, Vt/V0)” value is 1.63*; the “anti-tumor growth activity in BxPC-3 xenograft model (in words)” value is on record as “significant anti-tumor growth activity; also recorded: more potent in inhibiting tumor growth”; the T/C came out at 49.20%. In addition, the IC50 in data set [1] was found to be 0.204 µM. The IC50 against CRM1 was < 1000 nM. For the same molecule, the IC50 in data set [2] came out at 0.126 µM. Also, in data set [3], the AUC(0-t) came out at 3410 ng·h/mL, the highest level (Cmax) was 440 ng/mL, the MRT worked out at 5.89 h and the Tmax was determined as 1 h. This molecule also showed a half-life in data set [3] of 3.42 h.

As to `O=C(/C=C\n1cnc(-c2cc(C(F)(F)F)cc(C(F)(F)F)c2)n1)NN1CCOCC1=O` [Compound 38, (Z)-3-(3-(3,5-bis(trifluoromethyl)phenyl)-1H-1,2,4-triazol-1-yl)-N-(3-oxomorpholino)acrylamide], in the data set “Aqueous solubility assay” (setting [4]), the solubility at 3 days was 71.4 µg/mL (≈ 159 µM). In addition, the solubility at 3 days in “Aqueous solubility assay” (setting [5]) stood at 50.4 µg/mL (≈ 112 µM). Also, the “effect on body weight (in words)” value in the data set with BxPC-3 xenografts (10 mg/kg, compared to KPT-330) is “less effect on body weight”. Also, in the data set on BxPC-3 xenografts, the “Tumor volume D1” value worked out at 65.89 ± 12.63 mm^3, the “average body weight D1” value is 19.02 g, the “TGI (tumor growth inhibition)” value turned out to be 78.20% and the “Tumor volume D21” value is reported as 149.62 ± 23.20 mm^3. For the same molecule, in the data set with BxPC-3 xenografts, the “average body weight D21” value was determined as 20.80 g; the “RTV (relative tumor volume, Vt/V0)” value is 2.45*; the “anti-tumor growth activity in BxPC-3 xenograft model (in words)” value is reported as “greater efficacy”; the T/C was found to be 36.02%. Also, the IC50 in data set [1] is 0.283 µM. Besides, the IC50 against CRM1 was < 1000 nM. Further, the IC50 in data set [2] came to 0.654 µM. For the same molecule, in data set [3], the AUC(0-t) is 4390 ng·h/mL, the Cmax was 536 ng/mL, the MRT was 6.67 h and the Tmax turned out to be 0.5 h. This molecule also showed a half-life in data set [3] of 4.53 h.
